Assay results published in US6531496B1 (Bayer Aktiengesellschaft, priority 1999, dated 2003).

What was measured:
Plasmopara viticola = assay: Plasmopara test (grapevine)/protective; type: in vivo; details: 144 h, protective, evaluated 6 days after inoculation, read-out: Efficacy in %
Protocol: Plasmopara Test (Grapevine)/Protective Solvent: 47 parts by weight of acetone Emulsifier: 3 parts by weight of alkylaryl polyglycol ether To prepare a suitable active compound preparation, 1 part by weight of active compound is mixed with the stated amounts of solvent and emulsifier, and the concentrate is diluted with water to the desired concentration. To test for protective activity, young plants are sprayed with the active compound preparation at the application rate stated. After the spray coating has dried on, the plants are inoculated with an aqueous spore suspension of Plasmopara viticola and then remain for 1 day in an incubation cabinet at approx. 20° C. and a relative atmospheric humidity of 100%. […] The plants are then moistened and placed in an incubation cabinet for 1 day.

Plutella = Plutella test/synthetic feed; type: in vivo; details: active compound concentration 0.1%, after 7 days
Protocol: Plutella Test/Synthetic Feed Solvent: 100 parts by weight of acetone […] 1900 parts by weight of methanol To prepare a suitable active compound preparation, 1 part by weight of active compound is mixed with the stated amount of solvent and the concentrate is diluted with methanol to the desired concentration. A stated amount of active compound preparation of the desired concentration is pipetted onto a standardized amount of synthetic feed. After the methanol has evaporated, the lid of a film box, populated with approx. 100 Plutella eggs, is placed over each cavity. The freshly hatched larvae crawl onto the treated synthetic feed. After the desired time, the destruction is determined in %. 100% means that all the animals have been killed; 0% means that none of the animals have been killed.

In the case of `Nc1ccc(OC2=NS(=O)(=O)CS2)c(Cl)c1Cl` [Example 14], the pest or weed control at 250 g/ha (Plasmopara viticola) is reported as ≥ 90% and the “Destruction in % after 7^d” value (Plutella) is reported as 95%.
